Source: the supplement of paper PMC10307832

Experiments:
Test in all cases: relative viability (nuclei count vs DMSO), 5 days (fraction); higher = more cells survive
[1] = compound: Cc1ccc2nc(NCCN)c3ncc(C)n3c2c1
Summary of the method: (§1)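 Viability was read as treated-well nuclei divided by vehicle-well nuclei, using the median across plates. Lung cancer cell lines in 1536-well plates were kept overnight at 37 °C, pinned with five √10-spaced library-drug doses, and after 5 days were Hoechst-stained, imaged at 4× and counted in MetaXpress. Plates passed only with control CV below 25% and at least one doubling.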

Salubrinal = compound: O=C(/C=C/c1ccccc1)NC(NC(=S)Nc1cccc2cccnc12)C(Cl)(Cl)Cl [Salubrinal]
Summary of the method: as §1

Salubrinal + Navitoclax = compound: O=C(/C=C/c1ccccc1)NC(NC(=S)Nc1cccc2cccnc12)C(Cl)(Cl)Cl [Salubrinal] + CC1(C)CCC(c2ccc(Cl)cc2)=C(CN2CCN(c3ccc(C(=O)NS(=O)(=O)c4ccc(N[C@H](CCN5CCOCC5)CSc5ccccc5)c(S(=O)(=O)C(F)(F)F)c4)cc3)CC2)C1 [Navitoclax] (partner 0.5 µM)
Summary of the method: (§2)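 Relative viability is defined as nuclei in treated wells over nuclei in vehicle wells. Duplicate plates were run and medians reported. Lung cancer cell lines in 1536-well plates were dosed by pin tool one day after seeding, with one drug or with a fixed anchor-drug dose plus five library-drug doses (not always all listed) in √10 steps, and nuclei were counted after 5 days.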

[2] = compound: Cc1ccc2nc(NCCN)c3ncc(C)n3c2c1 + CC(=O)Nc1cccc(-n2c(=O)n(C3CC3)c(=O)c3c(Nc4ccc(I)cc4F)n(C)c(=O)c(C)c32)c1 [Trametinib] (partner 0.02 µM)
Summary of the method: as §2

| Cell Line | relative viability ([1]; 0.04 µM) | relative viability ([1]; 0.1265 µM) | relative viability ([1]; 0.4 µM) | relative viability ([1]; 1.265 µM) | relative viability ([1]; 4 µM) | relative viability (Salubrinal; 0.08 µM) | relative viability (Salubrinal; 0.253 µM) | relative viability (Salubrinal; 0.8 µM) | relative viability (Salubrinal; 2.53 µM) | relative viability (Salubrinal; 8 µM) | relative viability (Salubrinal + Navitoclax; first compound 0.08 µM) | relative viability (Salubrinal + Navitoclax; first compound 0.253 µM) | relative viability (Salubrinal + Navitoclax; first compound 0.8 µM) | relative viability (Salubrinal + Navitoclax; first compound 2.53 µM) | relative viability (Salubrinal + Navitoclax; first compound 8 µM) | relative viability ([2]; first compound 0.04 µM) | relative viability ([2]; first compound 0.1265 µM) | relative viability ([2]; first compound 0.4 µM) | relative viability ([2]; first compound 1.265 µM) | relative viability ([2]; first compound 4 µM) |
| --- | --- | --- | --- | --- | --- | --- | --- | --- | --- | --- | --- | --- | --- | --- | --- | --- | --- | --- | --- | --- |
| HCC-44 | 0.976 | 0.945 | 0.963 | 0.972 | 0.914 | 0.952 | 0.97 | 1.07 | 1.02 | 0.973 | 1.06 | 0.899 | 0.999 | 0.97 | 0.802 | 1.11 | 0.971 | 1.03 | 1.1 | 1.01 |
| HCC-78 | 1.08 | 0.979 | 0.919 | 0.943 | 0.826 | 1.03 | 0.937 | 1.27 | 0.949 | 0.891 | 0.851 | 0.835 | 0.982 | 0.764 | 0.769 | 0.703 | 0.672 | 0.699 | 0.527 | 0.536 |
| HCC-366 | 1.03 | 1.04 | 1.05 | 0.98 | 0.992 | 1.09 | 0.915 | 1.04 | 1.01 | 1.04 | 1.27 | 0.871 | 0.985 | 0.975 | 0.971 | 0.385 | 0.395 | 0.369 | 0.336 | 0.284 |
| HCC-827 | 1.07 | 1.04 | 1.02 | 1.04 | 1.05 | 1.04 | 1.07 | 1.01 | 1.01 | 1.03 | 1.03 | 0.958 | 1.1 | 1.05 | 0.979 | 0.557 | 0.51 | 0.539 | 0.626 | 0.555 |
| HOP-62 | 0.97 | 1 | 0.827 | 1.04 | 0.984 | 1.01 | 0.981 | 1.11 | 1.06 | 0.98 | 1.04 | 0.822 | 1.09 | 1.01 | 0.958 | 0.41 | 0.374 | 0.376 | 0.387 | 0.328 |
| IA-LM | 0.989 | 0.984 | 0.761 | 0.756 | 0.743 | 0.983 | 0.9 | 1.15 | 0.903 | 0.922 | 0.847 | 0.79 | 0.782 | 0.595 | 0.533 |  |  |  |  |  |
| LC-2-ad | 0.991 | 1.01 | 0.911 | 1.03 | 0.965 | 1.01 | 0.921 | 1.13 | 0.99 | 0.93 | 0.5 | 0.35 | 0.666 | 0.54 | 0.413 | 0.927 | 0.963 | 0.881 | 0.965 | 0.86 |
| LCLC-97TM1 | 1.07 | 0.934 | 0.978 | 1.04 | 0.899 | 1.07 | 1.06 | 1.21 | 0.992 | 1.11 | 0.368 | 0.648 | 0.464 |  | 0.433 | 0.194 | 0.212 | 0.196 | 0.189 | 0.186 |
| LCLC-103H | 1 | 0.974 | 0.918 | 1.08 | 0.955 | 1.07 | 0.932 | 1.05 | 1.09 | 0.935 |  |  |  |  |  | 0.727 | 0.677 | 0.65 | 0.66 | 0.67 |
| NCI-H358 | 0.988 | 1.01 | 0.933 | 1.07 | 0.919 | 1.06 | 1.02 | 1.09 | 0.908 | 0.795 |  |  |  |  |  | 0.133 | 0.153 | 0.13 | 0.137 | 0.129 |
| NCI-H522 | 0.882 | 1.04 | 0.909 | 1.03 | 1.02 | 0.947 | 0.819 | 1.1 | 1.02 | 0.921 |  |  |  |  |  | 0.641 | 0.753 | 0.791 | 0.719 | 0.684 |
| NCI-H650 | 1.03 | 1.03 | 0.797 | 1.02 | 0.941 | 0.839 | 1.04 | 1.08 | 1.11 | 0.912 |  |  |  |  |  | 1.03 | 0.911 | 1.07 | 0.955 | 0.864 |
| NCI-H661 | 1 | 1.03 | 0.996 | 0.985 | 0.969 | 1.09 | 0.928 | 0.992 | 0.937 | 0.998 |  |  |  |  |  | 0.579 | 0.57 | 0.567 | 0.574 | 0.544 |
| NCI-H1299 | 1.01 | 0.986 | 0.969 | 0.972 | 0.928 | 1.03 | 1.06 | 1 | 0.996 | 0.987 | 1.06 | 1.07 | 1.07 | 0.986 | 1.11 |  |  |  |  |  |
| NCI-H1563 | 1.02 | 0.909 | 0.947 | 1.03 | 1.01 | 1.01 | 0.942 | 0.943 | 0.919 | 0.911 |  |  |  |  |  |  |  |  |  |  |
| NCI-H1648 | 0.858 | 0.903 | 0.918 | 0.615 | 0.679 | 0.921 | 0.788 | 0.741 | 0.741 | 0.356 |  |  |  |  |  | 0.434 | 0.433 | 0.434 | 0.419 | 0.358 |
| NCI-H1703 | 1.07 | 1.07 | 1.01 | 1.16 | 0.91 | 1.12 | 1.03 | 0.994 | 0.881 | 0.942 | 1.39 | 1.12 | 0.971 | 0.901 | 0.964 |  |  |  |  |  |
| NCI-H2342 | 1.19 | 1.08 | 0.989 | 1.08 | 0.841 | 1.04 | 0.88 | 1.07 | 1.03 | 0.858 |  |  |  |  |  | 0.822 | 0.805 | 0.821 | 0.917 | 0.849 |
| SW 900 | 0.878 | 0.897 | 0.584 | 0.779 | 0.941 | 1.06 | 0.718 | 0.941 | 0.933 | 1.04 |  |  |  |  |  |  | 0.901 | 0.827 | 0.749 | 0.621 |
